# ChEMBL document CHEMBL4334477, “Bioactive Sesquiterpene Lactones Isolated from the Whole Plants of Vernonia cinerea” (J Nat Prod, 2019)
# Assays:
# [1] = system: HeLa; test: Cytotoxicity against human HeLa cells assessed as inhibition of cell proliferation measured after 48 hrs by MTS assay; assay type: functional, cell-based
# [2] = system: RAW264.7; test: Antiinflammatory activity against mouse RAW264.7 cells assessed as inhibition of LPS-induced nitric oxide overproduction pretreated with LPS for 24 hrs followed by overnight incubation with compound by Griess assay; assay type: functional, cell-based
# [3] = system: RAW264.7; test: Cytotoxicity against mouse RAW264.7 cells assessed as cell proliferation at 10 ug/ml pretreated with LPS for 24 hrs followed by overnight incubation with compound by MTS assay; assay type: cell-based
IC50 [2],Structure (SMILES),IC50 [1],Activity [3]
21 µM,C/C=C(\C)C(=O)O[C@H]1C[C@@H](C)[C@@]2(O)CC[C@@](C)(/C=C3/OC(=O)C(COC(C)=O)=C31)O2,32 µM,Non-Toxic
,C=C(C)C(=O)O[C@H]1C[C@@]23CO[C@@H](C[C@](C)(/C=C4/OC(=O)C(COC(C)=O)=C41)O2)[C@@H]3O,> 10 µM,
,C=C(C)C(=O)O[C@H]1C[C@@]23CO[C@@H](C[C@](C)(/C=C4/OC(=O)C(COC)=C41)O2)[C@@H]3O,> 10 µM,
23 µM,C=C(C)C(=O)O[C@H]1C[C@@H](C)[C@@]2(O)CC[C@@](C)(/C=C3/OC(=O)C(COC(C)=O)=C31)O2,35 µM,Non-Toxic
,C=C(C)C(=O)O[C@H]1C[C@@]23CO[C@@H](C[C@](C)(C[C@@]4(OC)OC(=O)C(COC(C)=O)=C14)O2)[C@@H]3O,> 10 µM,
,C/C=C(\C)C(=O)O[C@H]1C[C@@]23CO[C@@H](C[C@](C)(C[C@@]4(OC)OC(=O)C(COC(C)=O)=C14)O2)[C@@H]3O,> 10 µM,
,C/C=C(\C)C(=O)O[C@H]1C[C@@]23CO[C@@H](C[C@](C)(/C=C4/OC(=O)C(COC)=C41)O2)[C@@H]3O,> 10 µM,
,C/C=C(\C)C(=O)O[C@H]1C[C@@]23CO[C@@H](C[C@](C)(/C=C4/OC(=O)C(COC(C)=O)=C41)O2)[C@@H]3O,> 10 µM,
,Cc1c2ccncc2c(C)c2c1[nH]c1ccccc12 [ELLIPTECINE],2 µM,
